PubChem BioAssay AID1963875 (Molecular Pharmacology Branch, DTP, NCI, 2024)
Several values for one entry are separate records, joined by “and”; a condition that tells them apart may be missing. Equal values may be shown once.

System: KRAS-mutant PDC complex spheroid viability
Assay: Anticancer human tumor 186277-243-T-J2-PDC patient-derived colon adenocarcinoma cell line growth inhibition [KRAS2]
Conditions: for viability, T/C: stronger effect = lower value
How it was run: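 KRAS-mutant tumor cells were grown as spheroids with HUVEC endothelial cells and human MSCs as stroma. Targeted agents were tested alone and with KRAS pathway inhibitors. Doses started at or near clinical Cmax, or 10 microM, descending half-log.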

[1] = curve of first compound, second compound 0.1 µM
[2] = curve of first compound, second compound 0.316 µM
[3] = curve of first compound, second compound 1 µM
[4] = curve of first compound, second compound 3.16 µM
[5] = curve of first compound, second compound 10 µM
[6] = second compound 0.1 µM, first compound 0.0316 µM
[7] = second compound 0.1 µM, first compound 0.1 µM
[8] = second compound 0.1 µM, first compound 0.316 µM
[9] = second compound 0.1 µM, first compound 1 µM
[10] = second compound 0.1 µM, first compound 3.16 µM
[11] = second compound 0.1 µM, first compound 10 µM
[12] = second compound 0.316 µM, first compound 0.0316 µM
[13] = second compound 0.316 µM, first compound 0.1 µM
[14] = second compound 0.316 µM, first compound 0.316 µM
[15] = second compound 0.316 µM, first compound 1 µM
[16] = second compound 0.316 µM, first compound 3.16 µM
[17] = second compound 0.316 µM, first compound 10 µM
[18] = second compound 1 µM, first compound 0.0316 µM
[19] = second compound 1 µM, first compound 0.1 µM
[20] = second compound 1 µM, first compound 0.316 µM
[21] = second compound 1 µM, first compound 1 µM
[22] = second compound 1 µM, first compound 3.16 µM
[23] = second compound 1 µM, first compound 10 µM
[24] = second compound 3.16 µM, first compound 0.0316 µM
[25] = second compound 3.16 µM, first compound 0.1 µM
[26] = second compound 3.16 µM, first compound 0.316 µM
[27] = second compound 3.16 µM, first compound 1 µM
[28] = second compound 3.16 µM, first compound 3.16 µM
[29] = second compound 3.16 µM, first compound 10 µM
[30] = second compound 10 µM, first compound 0.0316 µM
[31] = second compound 10 µM, first compound 0.1 µM
[32] = second compound 10 µM, first compound 0.316 µM
[33] = second compound 10 µM, first compound 1 µM
[34] = second compound 10 µM, first compound 3.16 µM
[35] = second compound 10 µM, first compound 10 µM
[36] = compound alone, run of 07/12/2021
[37] = compound alone, run of 07/19/2021
[38] = compound alone, run of 07/26/2021
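Throughout, for viability, T/C: viability read after seven days of compound exposure; 100% = DMSO vehicle-treated spheroids so lower means less viable.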

SMILES | IC50 [1] [nM] | IC50 [2] [nM] | IC50 [3] [nM] | IC50 [4] [nM] | IC50 [5] [nM] | viability, T/C [6] [%] | viability, T/C [7] [%] | viability, T/C [8] [%] | viability, T/C [9] [%] | viability, T/C [10] [%] | viability, T/C [12] [%] | viability, T/C [13] [%] | viability, T/C [14] [%] | viability, T/C [15] [%] | viability, T/C [16] [%] | viability, T/C [18] [%] | viability, T/C [19] [%] | viability, T/C [20] [%] | viability, T/C [21] [%] | viability, T/C [22] [%] | further results
CC1OCC2(CCN(c3cnc(Sc4ccnc(N)c4Cl)c(N)n3)CC2)C1N (stereo not drawn) + CNCc1ccccc1-c1csc(C(C)Nc2nc(C)nc3cc(OC)c(OC)cc23)c1 | > 10000 | > 10000 | > 10000 | 1520 | < 31.6 | 96.1 | 104 | 104 | 90.9 | 107 | 103 | 99.8 | 111 | 108 | 104 | 91.2 | 104 | 95 | 105 | 93.2 | viability, T/C [11]: 105%; viability, T/C [17]: 84.2%; viability, T/C [23]: 60.5%; viability, T/C [24]: 85.2%; viability, T/C [25]: 72.8%; viability, T/C [26]: 102%; viability, T/C [27]: 71.4%; viability, T/C [28]: 11.4%; viability, T/C [29]: 1.07%; viability, T/C [30]: 0.18%; viability, T/C [31]: 0.18%; viability, T/C [32]: 0.17%; viability, T/C [33]: 0.15%; viability, T/C [34]: 0.12%; viability, T/C [35]: 0.15%
C=CC(=O)N1CCN(c2nc(=O)n(-c3c(C)ccnc3C(C)C)c3nc(-c4c(O)cccc4F)c(F)cc23)C(C)C1 (stereo not drawn) |  |  |  |  |  |  |  |  |  |  |  |  |  |  |  |  |  |  |  |  | viability, T/C (compound 0.1 µM): 98.1% [middle of 17 runs]; viability, T/C (compound 1 µM): 96.4% [middle of 17 runs]; IC50 [36]: > 10000 nM and 9920 nM and 2890 nM; IC50 [37]: > 10000 nM and 8520 nM; IC50 [38]: > 10000 nM
CC1COCCN1c1cc(-c2ccnn2C)c2ccnc(-c3ccn[nH]3)c2n1 (stereo not drawn) + COc1cc2nc(C)nc(NC(C)c3cc(N)cc(C(F)(F)F)c3)c2cc1OC1CCOC1 | < 10 | 21.2 | 19.9 | 19.9 | 18.9 | 4.38 | 3.41 | 2.71 | 2.04 | 1.41 | 24.3 | 3.67 | 2.88 | 2.23 | 3.71 | 17.2 | 4.4 | 3.51 | 3.19 | 3.55 | viability, T/C (second compound 0.1 µM, first compound 0.01 µM): 5.03%; viability, T/C (second compound 0.316 µM, first compound 0.01 µM): 98.5%; viability, T/C (second compound 1 µM, first compound 0.01 µM): 98.9%; viability, T/C (second compound 3.16 µM, first compound 0.01 µM): 99.5%; viability, T/C [24]: 16.4%; viability, T/C [25]: 3.55%; viability, T/C [26]: 2.87%; viability, T/C [27]: 1.93%; viability, T/C [28]: 3.19%; viability, T/C (second compound 10 µM, first compound 0.01 µM): 103%; viability, T/C [30]: 7.22%; viability, T/C [31]: 3.43%; viability, T/C [32]: 2.48%; viability, T/C [33]: 2.25%; viability, T/C [34]: 2.72%
CC1COCCN1c1cc(-c2ccnn2C)c2ccnc(-c3ccn[nH]3)c2n1 (stereo not drawn) |  |  |  |  |  |  |  |  |  |  |  |  |  |  |  |  |  |  |  |  | viability, T/C (compound 0.0316 µM): 29.2% [middle of 5 runs]; viability, T/C (compound 0.1 µM): 7.22% [middle of 5 runs]; viability, T/C (compound 0.316 µM): 4.63% [middle of 5 runs]; viability, T/C (compound 1 µM): 3.65% [middle of 5 runs]; viability, T/C (compound 3.16 µM): 4.09% [middle of 5 runs]
COc1cc(Nc2ncc3c(n2)-c2ccc(Cl)cc2C(c2c(F)cccc2OC)=NC3)ccc1C(=O)O + COc1cc2nc(C)nc(NC(C)c3cc(N)cc(C(F)(F)F)c3)c2cc1OC1CCOC1 | < 31.6 | < 31.6 | < 31.6 | < 31.6 | < 31.6 | 30.3 | 29 | 26.4 | 29.2 | 38.8 | 26.8 | 27.7 | 26.1 | 27.4 | 33.7 | 26.8 | 24.7 | 23.5 | 25.7 | 31.3 | viability, T/C [11]: 38.7%; viability, T/C [17]: 36.6%; viability, T/C [23]: 34.2%; viability, T/C [24]: 22.2%; viability, T/C [25]: 22.6%; viability, T/C [26]: 22.1%; viability, T/C [27]: 20.6%; viability, T/C [28]: 24.3%; viability, T/C [29]: 22.4%; viability, T/C [30]: 14.1%; viability, T/C [31]: 17.8%; viability, T/C [32]: 10.2%; viability, T/C [33]: 7.56%; viability, T/C [34]: 14%; viability, T/C [35]: 7.41%
Cn1nccc1Nc1nccc(-c2cc3c(s2)C(C)(C)N(CCN2CCOCC2)C3=O)n1 + CNCc1ccccc1-c1csc(C(C)Nc2nc(C)nc3cc(OC)c(OC)cc23)c1 | 293 | 304 | 205 | 91.7 | < 31.6 | 99.2 | 98.3 | 46.1 | 13.5 | 7.74 | 94.4 | 97.3 | 48.2 | 9.73 | 4.43 | 92 | 105 | 20.6 | 4.12 | 1.64 | viability, T/C [11]: 6.21%; viability, T/C [17]: 7.35%; viability, T/C [23]: 2.61%; viability, T/C [24]: 81.7%; viability, T/C [25]: 47.4%; viability, T/C [26]: 1.6%; viability, T/C [27]: 1.86%; viability, T/C [28]: 0.22%; viability, T/C [29]: 0.1%; viability, T/C [30]: 0.17%; viability, T/C [31]: 0.15%; viability, T/C [32]: 0.1%; viability, T/C [33]: 0.09%; viability, T/C [34]: 0.09%; viability, T/C [35]: 0.16%
CCNC(=O)CC1N=C(c2ccc(Cl)cc2)c2cc(OC)ccc2-n2c(C)nnc21 (stereo not drawn) + CNCc1ccccc1-c1csc(C(C)Nc2nc(C)nc3cc(OC)c(OC)cc23)c1 | > 10000 | > 10000 | 5550 | 379 | < 31.6 | 106 | 110 | 123 | 149 | 111 | 106 | 111 | 138 | 127 | 84.9 | 98.9 | 112 | 146 | 106 | 62.3 | viability, T/C [11]: 70.6%; viability, T/C [17]: 58.1%; viability, T/C [23]: 37.6%; viability, T/C [24]: 98.6%; viability, T/C [25]: 108%; viability, T/C [26]: 59.2%; viability, T/C [27]: 1.92%; viability, T/C [28]: 0.58%; viability, T/C [29]: 0.76%; viability, T/C [30]: 0.22%; viability, T/C [31]: 0.22%; viability, T/C [32]: 0.17%; viability, T/C [33]: 0.12%; viability, T/C [34]: 0.11%; viability, T/C [35]: 0.34%
CNCc1ccccc1-c1csc(C(C)Nc2nc(C)nc3cc(OC)c(OC)cc23)c1 (stereo not drawn) |  |  |  |  |  |  |  |  |  |  |  |  |  |  |  |  |  |  |  |  | viability, T/C (compound 0.1 µM): 100% [middle of 17 runs]; viability, T/C (compound 0.316 µM): 98.9% [middle of 17 runs]; viability, T/C (compound 10 µM): 0.16% [middle of 12 runs]; IC50 [36]: 5.56 µM [middle of 6 runs]; IC50 [37]: 2.27 µM [middle of 5 runs]; IC50 [38]: 5.05 µM [middle of 6 runs]
CC(=O)OC12COC1CC(O)C1(C)C(=O)C(O)C3=C(C)C(OC(=O)C(O)C(NC(=O)OC(C)(C)C)c4ccccc4)CC(O)(C(OC(=O)c4ccccc4)C21)C3(C)C (stereo not drawn) |  |  |  |  |  |  |  |  |  |  |  |  |  |  |  |  |  |  |  |  | viability, T/C (compound 0.01 µM): 5.72% [middle of 5 runs]; viability, T/C (compound 0.0316 µM): 3.66% [middle of 5 runs]; viability, T/C (compound 0.1 µM): 3.28% [middle of 5 runs]; viability, T/C (compound 0.316 µM): 3.46% [middle of 4 runs]; viability, T/C (compound 1 µM): 3.38% [middle of 5 runs]; viability, T/C (compound 3.16 µM): 3.74% [middle of 5 runs]; IC50 (curve of compound): < 10 nM
